In ChEMBL document CHEMBL5331051, “Cationic, amphipathic small molecules based on a triazine-piperazine-triazine scaffold as a new class of antimicrobial agents” (Eur J Med Chem, 2022):
≈ marks a conversion by molar mass, not a printed value. Calls of active or inactive are those of the source. The calls are words filed in the database; no cut-off is given here.

Key:
Staphylococcus aureus [1] = test: Synergistic antibacterial activity against methicillin-resistant Staphylococcus aureus CCARM 3089 strain assessed as fractional inhibitory concentration in presence of oxacillin by checkerboard assay; type: functional
Escherichia coli [2] = test: Antibacterial activity against Escherichia coli KCTC 1682 strain assessed as bacterial growth inhibition measured at 18 to 24 hrs in presence of 6 uM NH4Cl by microdilution assay; type: functional; settings: time 18-24 hrs
Staphylococcus aureus [3] = test: Antibacterial activity against Staphylococcus aureus KCTC 1621 strain assessed as bacterial growth inhibition measured at 18 to 24 hrs by microdilution assay; type: functional; settings: time 18-24 hrs
Staphylococcus aureus [4] = test: Antibacterial activity against Staphylococcus aureus KCTC 1621 strain assessed as bacterial growth inhibition measured at 18 to 24 hrs in presence of 6 uM NH4Cl by microdilution assay; type: functional; settings: time 18-24 hrs
Escherichia coli [5] = test: Antibacterial activity against Escherichia coli KCTC 1682 strain assessed as bacterial growth inhibition measured at 18 to 24 hrs by microdilution assay; type: functional; settings: time 18-24 hrs
Staphylococcus aureus [6] = test: Antibacterial activity against Staphylococcus aureus KCTC 1621 strain assessed as bacterial growth inhibition measured at 18 to 24 hrs in presence of 4 uM FeCl3 by microdilution assay; type: functional; settings: time 18-24 hrs
Staphylococcus aureus [7] = test: Synergistic antibacterial activity against methicillin-resistant Staphylococcus aureus CCARM 3089 strain assessed as oxacillin MIC by checkerboard assay; type: functional
Escherichia coli [8] = test: Antibacterial activity against Escherichia coli KCTC 1682 strain assessed as bacterial growth inhibition measured at 18 to 24 hrs in presence of 150 mM NaCl by microdilution assay; type: functional; settings: time 18-24 hrs
Cell membrane [9] = test: Induction of outer membrane permeabilization in Escherichia coli KCTC 1682 assessed as increase in fluorescence intensity at 2 to 8 ug/ml by NPN staining based analysis; settings: dose 2-8 µg/ml
Pseudomonas aeruginosa [10] = test: Antibacterial activity against Pseudomonas aeruginosa KCTC 1637 strain assessed as bacterial growth inhibition measured at 18 to 24 hrs by microdilution assay; type: functional; settings: time 18-24 hrs
Pseudomonas aeruginosa [11] = test: Synergistic antibacterial activity against multidrug-resistant Pseudomonas aeruginosa CCARM 2095 strain assessed as ciprofloxacin fractional inhibitory concentration in presence of ciprofloxacin by checkerboard assay; type: functional
Pseudomonas aeruginosa [12] = test: Antibiofilm activity against multidrug-resistant Pseudomonas aeruginosa assessed as inhibition of biofilm formation; type: functional
Cell membrane [13] = test: Induction of cell membrane depolarization in Staphylococcus aureus assessed as increase in fluorescence intensity at 2 times MIC by SYTOX green staining based analysis
Cell membrane [14] = test: Induction of inner membrane permeabilization in Escherichia coli ML-35 assessed as increase in […] at 2 times MIC by ONPG staining based analysis
DNA = test: Binding affinity to plasmid DNA (unknown origin) assessed as retardation of DNA migration at 4 to 8 ug/ml incubated for 1 hr by agarose gel electrophoresis method; type: nucleic-acid assay; settings: dose 4-8 µg/ml
Lipopolysaccharide (LPS) [15] = test: Binding affinity to Escherichia coli O111:B4 lipopolysaccharide assessed as suppression of FTIC labeled LPS binding to mouse RAW264.7 cells at 20 ug/ml pretreated LPS with cells for 1 hr followed by compound addition measured after 1 hr by flow cytometer assay (reference value: 48.12%); type: cell-based; settings: dose 20.0 µg/ml
Staphylococcus aureus [16] = test: Additive antibacterial activity against multidrug-resistant Staphylococcus aureus CCARM 3089 strain assessed as fractional inhibitory concentration index in presence of chloramphenicol by checkerboard assay; type: functional
Staphylococcus aureus [17] = test: Antibacterial activity against Staphylococcus aureus KCTC 1621 strain assessed as bacterial growth inhibition measured at 18 to 24 hrs in presence of 150 mM NaCl by microdilution assay; type: functional; settings: time 18-24 hrs
Staphylococcus aureus [18] = test: Antibacterial activity against methicillin-resistant Staphylococcus aureus CCARM 3089 strain assessed as bacterial growth inhibition by checkerboard assay; type: functional
Cell membrane [19] = test: Induction of cell membrane depolarization in Staphylococcus aureus assessed as fluorescence intensity at 2 to 16 times MIC by DiSC3(5) dye based fluorescence assay; type: subcellular
Staphylococcus aureus [20] = test: Antibacterial activity against Staphylococcus aureus KCTC 1621 strain assessed as bacterial growth inhibition measured at 18 to 24 hrs in presence of 1 mM MgCl2 by microdilution assay; type: functional; settings: time 18-24 hrs
RAW264.7 [21] = test: Antiinflammatory activity in LPS-induced mouse RAW264.7 cells assessed as reduction in NO production at 5 ug/ml measured after 72 hrs by ELISA assay relative to control; type: functional
Staphylococcus aureus [22] = test: Antibacterial activity against methicillin-resistant Staphylococcus aureus CCARM 3089 strain assessed as bacterial growth inhibition measured at 18 to 24 hrs by microdilution assay; type: functional; settings: time 18-24 hrs
Pseudomonas aeruginosa [23] = test: Synergistic antibacterial activity against multidrug-resistant Pseudomonas aeruginosa CCARM 2095 strain assessed as bacterial growth inhibition in presence of ciprofloxacin by checkerboard assay; type: functional
Staphylococcus aureus [24] = test: Additive antibacterial activity against multidrug-resistant Staphylococcus aureus CCARM 3089 strain assessed as fractional inhibitory concentration index in presence of oxacillin by checkerboard assay; type: functional
Staphylococcus aureus [25] = test: Antibacterial activity against methicillin-resistant Staphylococcus aureus CCARM 3090 strain assessed as bacterial growth inhibition measured at 18 to 24 hrs by microdilution assay; type: functional; settings: time 18-24 hrs
Escherichia coli [26] = test: Antibacterial activity against Escherichia coli KCTC 1682 strain assessed as bacterial growth inhibition measured after 6 hrs in presence of chymotrypsin by radial diffusion assay; type: functional, organism-based
Staphylococcus aureus [27] = test: Synergistic antibacterial activity against multidrug-resistant Staphylococcus aureus CCARM 3089 strain assessed as fractional inhibitory concentration index in presence of oxacillin by checkerboard assay; type: functional
Escherichia coli [28] = test: Antibacterial activity against Escherichia coli KCTC 1682 strain assessed as bacterial growth inhibition measured after 6 hrs in presence of pepsin by radial diffusion assay; type: functional, organism-based
RAW264.7 [29] = test: Antiinflammatory activity in LPS-induced mouse RAW264.7 cells assessed as reduction in TNF alpha level at 20 ug/ml measured after 72 hrs by ELISA assay relative to control; type: functional
Pseudomonas aeruginosa [30] = test: Antibiofilm activity against multidrug-resistant Pseudomonas aeruginosa assessed as biofilm eradication; type: functional
Staphylococcus aureus [31] = test: Additive antibacterial activity against multidrug-resistant Staphylococcus aureus CCARM 3089 strain assessed as oxacillin fractional inhibitory concentration by checkerboard assay; type: functional
Lipopolysaccharide (LPS) [32] = test: Displacement of BODIPY-TR-cadaverine from Escherichia coli O111:B4 lipopolysaccharide assessed as increase in fluorescence at 5 ug/ml by fluorescence based assay relative to control; settings: dose 5.0 µg/ml

Row | Compound | MIC (Escherichia coli [2]) [µM] | MIC (Staphylococcus aureus [3]) [µM] | MIC (Staphylococcus aureus [4]) [µM] | MIC (Escherichia coli [5]) [µM] | MIC (Staphylococcus aureus [6]) [µM] | MIC (Escherichia coli [8]) [µM] | Activity (Cell membrane [9]) | MIC (Pseudomonas aeruginosa [10]) [µM] | Activity (Cell membrane [13]) | Activity (Cell membrane [14]) | Activity (DNA) | Flu intensity (Lipopolysaccharide (LPS) [15]) [%] | fractional inhibitory concentration index (FICI) (Staphylococcus aureus [16]) | MIC (Staphylococcus aureus [17]) [µM] | MIC (Staphylococcus aureus [18]) [µg/mL] | Activity (Cell membrane [19]) | MIC (Staphylococcus aureus [20]) [µM] | inhibition at 5 µg/mL (RAW264.7 [21]) [%] | MIC (Staphylococcus aureus [22]) [µM] | MIC (Staphylococcus aureus [25]) [µM] | further results
1 | NCCNc1nc(NCCN)nc(N2CC(Cc3ccccc3)N(c3nc(NCCN)nc(NCCN)n3)CC2Cc2ccccc2)n1 (stereo not given) | 6.1 | 6.1 (≈ 4.01 µg/mL) | 6.1 | 6.1 (≈ 4.01 µg/mL) | 6.1 | 6.1 | inactive | 6.1 (≈ 4.01 µg/mL) | inactive | inactive | Active | 33.4 | 0.75 | 6.1 | 32 | inactive | 6.1 | 31.5 | 48.6 (≈ 31.9 µg/mL) | 3 (≈ 1.97 µg/mL) | FIC (Staphylococcus aureus [1]): 0.25; MIC (Staphylococcus aureus [7]): 256 µg/mL; FIC (Pseudomonas aeruginosa [11]): 0.25; MBEC50 (Pseudomonas aeruginosa [12]): 24.3 µM; MBEC90 (Pseudomonas aeruginosa [12]): 97.3 µM; MBIC (Pseudomonas aeruginosa [12]): 24.3 µM; MBIC50 (Pseudomonas aeruginosa [12]): 3 µM; MIC (Pseudomonas aeruginosa [23]): 4 µg/mL; fractional inhibitory concentration index (FICI) (Staphylococcus aureus [24]): 0.5; Activity (Escherichia coli [26]): Active; fractional inhibitory concentration index (FICI) (Staphylococcus aureus [27]): 0.5; Activity (Escherichia coli [28]): Active; inhibition at 20 µg/mL (RAW264.7 [29]): 72.4%; MBEC50 (Pseudomonas aeruginosa [30]): 24.3 µM; MBEC90 (Pseudomonas aeruginosa [30]): 97.3 µM; FIC (Staphylococcus aureus [31]): 0.25
2 | N=C(N)NCCNc1nc(NCCNC(=N)N)nc(N2CC(Cc3ccccc3)N(c3nc(NCCNC(=N)N)nc(NCCNC(=N)N)n3)CC2Cc2ccccc2)n1 (stereo not given) | 9.7 | 4.8 (≈ 3.96 µg/mL) | 4.8 | 17.7 (≈ 14.6 µg/mL) | 9.6 | 9.7 | inactive | 4.8 (≈ 3.96 µg/mL) | inactive | inactive | Active | 40.6 | 0.75 | 4.8 | 8 | inactive | 9.6 | 68.1 | 9.7 (≈ 8 µg/mL) | 4.8 (≈ 3.96 µg/mL) | Activity (Lipopolysaccharide (LPS) [32]): > 50%; Activity (Escherichia coli [26]): Active; Activity (Escherichia coli [28]): Active; inhibition at 20 µg/mL (RAW264.7 [29]): 99.8%
